Test results published in patent publication US8129371B2, “Thienopyrimidine and pyrazolopyrimidine compounds and their use as mTOR kinase and PI3 kinase inhibitors” (Wyeth LLC, priority 2007, dated 2012).
Where two headings read alike, the source gives them in different places.

Columns and labels:
[1] = test system: acute lymphoblastic leukemia xenograft; settings: NOS/SCID xenograft mouse model; Teachey et al, Blood 2006; cited from earlier work
Human mTOR (FLAG-TOR) = biological target: T1, Human mTOR (FLAG-TOR) (Homo sapiens, UniProt P42345); assay: Human mTOR kinase assay with purified enzyme, DELFIA format; assay type: biochemical
T1 construct: FLAG
Procedure, shortened: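 DELFIA readout: Eu-anti-P(T389)-S6K antibody (40 ng/mL, 1 h) on captured His6-S6K from the stopped reaction. Kinase step used purified FLAG-tagged human mTOR with test compound in HEPES (pH 7.4)/MnCl2/DTT buffer, 2 h at room temperature (linear 1–6 h), terminated by EDTA/EGTA.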

PI3K [2] = biological target: T2, PI3K (Homo sapiens, UniProt O00329); assay: Fluorescence polarization assay for PI3K; assay type: biochemical
T2 construct: PI3 Kinase δ IC50; other: PI3 Kinase δ; other: PI3 Kinase δ isoform, fluorescence polarization
T2 sequence (O00329 1-1044): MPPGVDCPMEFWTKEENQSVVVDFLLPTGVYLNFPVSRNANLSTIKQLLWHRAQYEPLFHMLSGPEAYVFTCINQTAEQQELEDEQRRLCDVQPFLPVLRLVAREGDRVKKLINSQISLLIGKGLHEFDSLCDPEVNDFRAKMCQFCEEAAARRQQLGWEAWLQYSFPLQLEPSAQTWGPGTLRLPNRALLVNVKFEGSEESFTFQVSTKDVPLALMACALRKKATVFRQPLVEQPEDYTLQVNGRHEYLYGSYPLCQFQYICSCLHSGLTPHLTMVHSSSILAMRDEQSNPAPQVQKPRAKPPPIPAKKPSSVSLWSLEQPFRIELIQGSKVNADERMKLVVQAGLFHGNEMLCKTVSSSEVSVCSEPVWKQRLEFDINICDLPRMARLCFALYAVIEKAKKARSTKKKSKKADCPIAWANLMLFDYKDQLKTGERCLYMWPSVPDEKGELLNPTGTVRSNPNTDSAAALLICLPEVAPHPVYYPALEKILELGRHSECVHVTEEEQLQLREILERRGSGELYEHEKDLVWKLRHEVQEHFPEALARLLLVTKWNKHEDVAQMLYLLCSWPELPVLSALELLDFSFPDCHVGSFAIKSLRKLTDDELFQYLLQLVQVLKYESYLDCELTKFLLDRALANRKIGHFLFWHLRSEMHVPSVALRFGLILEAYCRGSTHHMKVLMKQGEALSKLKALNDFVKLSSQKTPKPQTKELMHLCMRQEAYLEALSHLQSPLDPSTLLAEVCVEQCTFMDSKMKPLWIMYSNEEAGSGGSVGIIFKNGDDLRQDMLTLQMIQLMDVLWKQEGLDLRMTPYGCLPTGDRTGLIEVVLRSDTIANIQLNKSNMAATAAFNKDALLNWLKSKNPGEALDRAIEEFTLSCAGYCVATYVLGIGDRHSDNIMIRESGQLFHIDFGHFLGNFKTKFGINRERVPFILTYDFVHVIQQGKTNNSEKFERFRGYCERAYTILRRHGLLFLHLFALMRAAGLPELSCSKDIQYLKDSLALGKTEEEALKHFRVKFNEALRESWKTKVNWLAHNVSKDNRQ
Procedure, shortened: (§1)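 Fluorescence-polarization competition readout: after 30–60 min of PIP2/ATP turnover in 1% DMSO, a stop mix with GST-GRP (70 nM) and red probe (10 nM) was added.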

PI3K [3] = biological target: T3, PI3K (Homo sapiens, UniProt P42336); assay: Fluorescence polarization assay for PI3K; assay type: biochemical; settings: read-out: PI3 Kinase α IC50
T3 construct: PI3 Kinase α IC50; other: PI3 Kinase α; other: PI3 Kinase α isoform, fluorescence polarization
Procedure, shortened: as §1

PI3K [4] = biological target: T4, PI3K (Homo sapiens, UniProt P42338); assay: Fluorescence polarization assay for PI3K; assay type: biochemical
T4 construct: PI3 Kinase β IC50; other: PI3 Kinase β; other: PI3 Kinase β isoform, fluorescence polarization
Procedure, shortened: as §1

PI3K [5] = biological target: T5, PI3K (Homo sapiens, UniProt P48736); assay: Fluorescence polarization assay for PI3K; assay type: biochemical; settings: read-out: PI3 Kinase γ IC50
T5 construct: PI3 Kinase γ IC50; other: PI3 Kinase γ; other: PI3 Kinase γ isoform, fluorescence polarization
Procedure, shortened: as §1

prostate line LNCap = assay: In vitro cell culture growth assay (MTS), LNCap; assay type: cell-based; settings: Homo sapiens, LNCaP, 72 h, LNCap cells, three days after drug treatment
Procedure, shortened: (§2)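 Growth is reported as percent of vehicle-treated control grown in the same plate, with viability determined by metabolic conversion of MTS dye and absorbance read at 490 nm. Compounds were applied one day after plating and left for three days.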

breast line MDA468 = assay: In vitro cell culture growth assay (MTS), MDA468; assay type: cell-based; settings: Homo sapiens, 72 h, MDA468 cells, three days after drug treatment
Procedure, shortened: as §2

[6] = purified human mTOR enzyme, DELFIA format
[7] = PI3 Kinase δ isoform, fluorescence polarization
[8] = PI3 Kinase α isoform, fluorescence polarization
[9] = PI3 Kinase β isoform, fluorescence polarization
[10] = PI3 Kinase γ isoform, fluorescence polarization

T5 sequence (P48736 whole entry, canonical isoform): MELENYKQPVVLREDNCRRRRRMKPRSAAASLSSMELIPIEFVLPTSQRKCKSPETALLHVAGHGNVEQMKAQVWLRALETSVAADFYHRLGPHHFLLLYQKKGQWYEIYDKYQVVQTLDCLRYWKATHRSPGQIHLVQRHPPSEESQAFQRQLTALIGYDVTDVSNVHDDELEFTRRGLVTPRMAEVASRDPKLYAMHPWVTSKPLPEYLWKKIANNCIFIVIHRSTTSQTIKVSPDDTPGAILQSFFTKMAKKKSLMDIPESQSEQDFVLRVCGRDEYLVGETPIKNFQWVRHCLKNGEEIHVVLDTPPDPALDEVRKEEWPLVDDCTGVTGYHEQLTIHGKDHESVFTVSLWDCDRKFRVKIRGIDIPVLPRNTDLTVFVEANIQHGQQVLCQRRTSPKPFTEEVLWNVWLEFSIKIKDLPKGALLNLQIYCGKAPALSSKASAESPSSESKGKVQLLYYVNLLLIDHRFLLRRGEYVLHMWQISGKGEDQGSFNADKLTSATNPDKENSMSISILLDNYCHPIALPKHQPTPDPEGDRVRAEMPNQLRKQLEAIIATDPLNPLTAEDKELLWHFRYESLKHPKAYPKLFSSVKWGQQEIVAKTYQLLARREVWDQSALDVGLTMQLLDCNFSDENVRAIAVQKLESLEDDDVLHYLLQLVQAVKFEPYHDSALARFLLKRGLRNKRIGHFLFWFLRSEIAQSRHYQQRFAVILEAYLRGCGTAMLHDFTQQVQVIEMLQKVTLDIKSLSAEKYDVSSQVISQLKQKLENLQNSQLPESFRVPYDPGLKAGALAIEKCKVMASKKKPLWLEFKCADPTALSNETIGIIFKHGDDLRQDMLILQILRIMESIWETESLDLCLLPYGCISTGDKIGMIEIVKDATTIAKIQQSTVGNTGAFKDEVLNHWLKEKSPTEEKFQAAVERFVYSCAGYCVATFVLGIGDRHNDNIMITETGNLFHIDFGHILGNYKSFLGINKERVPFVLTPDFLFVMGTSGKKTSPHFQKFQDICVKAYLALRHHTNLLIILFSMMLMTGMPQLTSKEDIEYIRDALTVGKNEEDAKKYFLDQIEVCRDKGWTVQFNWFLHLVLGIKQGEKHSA
T3 sequence (P42336 whole entry, canonical isoform): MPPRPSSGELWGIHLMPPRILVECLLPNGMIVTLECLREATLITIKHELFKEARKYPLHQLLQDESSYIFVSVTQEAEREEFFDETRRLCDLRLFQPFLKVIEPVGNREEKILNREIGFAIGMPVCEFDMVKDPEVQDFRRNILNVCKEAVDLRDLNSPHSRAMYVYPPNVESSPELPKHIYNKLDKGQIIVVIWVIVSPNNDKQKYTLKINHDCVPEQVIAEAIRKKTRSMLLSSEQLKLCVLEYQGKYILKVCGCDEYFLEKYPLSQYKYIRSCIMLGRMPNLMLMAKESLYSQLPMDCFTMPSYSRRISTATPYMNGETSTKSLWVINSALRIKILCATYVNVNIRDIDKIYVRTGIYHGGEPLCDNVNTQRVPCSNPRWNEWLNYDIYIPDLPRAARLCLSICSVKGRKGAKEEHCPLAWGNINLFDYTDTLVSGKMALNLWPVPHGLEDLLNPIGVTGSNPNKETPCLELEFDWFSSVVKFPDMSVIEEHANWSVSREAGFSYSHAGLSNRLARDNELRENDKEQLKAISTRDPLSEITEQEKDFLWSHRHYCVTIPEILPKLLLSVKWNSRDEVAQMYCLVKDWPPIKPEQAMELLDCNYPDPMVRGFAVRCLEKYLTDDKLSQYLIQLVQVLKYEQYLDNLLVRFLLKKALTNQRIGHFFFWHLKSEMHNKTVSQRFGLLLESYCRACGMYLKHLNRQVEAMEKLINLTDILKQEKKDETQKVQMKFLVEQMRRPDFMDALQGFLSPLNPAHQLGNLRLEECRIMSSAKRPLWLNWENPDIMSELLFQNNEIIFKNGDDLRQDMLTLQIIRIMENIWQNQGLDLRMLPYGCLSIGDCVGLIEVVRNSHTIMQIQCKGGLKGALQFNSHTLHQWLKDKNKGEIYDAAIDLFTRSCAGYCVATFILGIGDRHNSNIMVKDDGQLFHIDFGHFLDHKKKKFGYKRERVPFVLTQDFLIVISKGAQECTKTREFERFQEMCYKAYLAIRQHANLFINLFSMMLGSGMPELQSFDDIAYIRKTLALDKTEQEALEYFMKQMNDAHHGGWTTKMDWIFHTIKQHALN
T4 sequence (P42338 whole entry, canonical isoform): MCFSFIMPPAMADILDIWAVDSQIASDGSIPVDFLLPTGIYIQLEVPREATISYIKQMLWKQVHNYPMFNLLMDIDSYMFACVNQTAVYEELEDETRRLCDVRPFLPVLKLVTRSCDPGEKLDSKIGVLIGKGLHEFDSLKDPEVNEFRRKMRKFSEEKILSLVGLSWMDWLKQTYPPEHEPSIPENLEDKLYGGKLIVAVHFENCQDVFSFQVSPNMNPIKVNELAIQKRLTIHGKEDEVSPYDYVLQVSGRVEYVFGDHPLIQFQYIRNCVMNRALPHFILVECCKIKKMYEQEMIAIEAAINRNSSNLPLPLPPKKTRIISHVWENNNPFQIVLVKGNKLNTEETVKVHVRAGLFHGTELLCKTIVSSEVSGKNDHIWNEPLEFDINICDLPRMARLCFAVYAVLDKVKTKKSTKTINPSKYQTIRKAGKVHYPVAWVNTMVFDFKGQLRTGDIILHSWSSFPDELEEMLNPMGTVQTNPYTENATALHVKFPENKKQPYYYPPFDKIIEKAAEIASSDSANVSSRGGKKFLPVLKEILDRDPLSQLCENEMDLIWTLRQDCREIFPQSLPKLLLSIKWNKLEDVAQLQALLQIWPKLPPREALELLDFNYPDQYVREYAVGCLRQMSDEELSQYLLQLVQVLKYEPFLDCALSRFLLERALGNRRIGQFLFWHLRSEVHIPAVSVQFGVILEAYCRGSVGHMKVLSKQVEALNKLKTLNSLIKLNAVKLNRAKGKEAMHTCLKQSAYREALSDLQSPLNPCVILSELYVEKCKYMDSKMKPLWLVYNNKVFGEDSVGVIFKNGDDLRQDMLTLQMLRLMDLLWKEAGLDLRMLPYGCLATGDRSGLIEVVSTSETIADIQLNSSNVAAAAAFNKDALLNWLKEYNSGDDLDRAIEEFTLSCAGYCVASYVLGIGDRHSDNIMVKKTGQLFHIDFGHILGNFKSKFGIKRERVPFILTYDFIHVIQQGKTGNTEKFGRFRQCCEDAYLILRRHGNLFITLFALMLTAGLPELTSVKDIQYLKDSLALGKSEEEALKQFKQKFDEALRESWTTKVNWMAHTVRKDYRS

IC50 (Human mTOR (FLAG-TOR); [6])	IC50 (PI3K [2]; [7])	IC50 (PI3K [3]; [8])	IC50 (PI3K [4]; [9])	IC50 (PI3K [5]; [10])	IC50 (prostate line LNCap)	IC50 (Human mTOR (FLAG-TOR))	IC50 (PI3K [2]; PI3 Kinase δ)	IC50 (PI3K [3]; PI3 Kinase α)	IC50 (PI3K [4]; PI3 Kinase β)	IC50 (PI3K [5]; PI3 Kinase γ)	Structure (SMILES)	activity in xenograft mouse model of acute lymphoblastic leukemia [1]	IC50 (breast line MDA468)
											CO[C@H]1C[C@@H]2CC[C@@H](C)[C@@](O)(O2)C(=O)C(=O)N2CCCC[C@H]2C(=O)O[C@H]([C@H](C)C[C@@H]2CC[C@@H](OC(=O)C(C)(CO)CO)[C@H](OC)C2)CC(=O)[C@H](C)/C=C(\C)[C@@H](O)[C@@H](OC)C(=O)[C@H](C)C[C@H](C)/C=C/C=C/C=C/1C [Torisel]	active	
0.265 nM	200 nM	239 nM	2840 nM	720 nM	< 1 nM						COC1CCC(n2ncc3c(N4CC5CCC(C4)O5)nc(-c4ccc(NC(=O)Nc5ccc(N6CCN(C)CC6)cc5)cc4)nc32)CC1 (centres unmarked) [Example 304, 1-{4-[1-(4-methoxycyclohexyl)-4-(8-oxa-3-azabicyclo[3.2.1]oct-3-yl)-1H-pyrazolo[3,4-d]pyrimidin-6-yl]phenyl}-3-[4-(4-methylpiperazin-1-yl)phenyl]urea]		1 nM
0.3 nM	1740 nM	3920 nM	> 10000 nM	8020 nM	2 nM						COC1CCC(n2ncc3c(N4CC5CCC(C4)O5)nc(-c4ccc(NC(=O)NC5CC5)cc4)nc32)CC1 (centres unmarked) [Example 302, 1-cyclopropyl-3-{4-[1-(4-methoxycyclohexyl)-4-(8-oxa-3-azabicyclo[3.2.1]oct-3-yl)-1H-pyrazolo[3,4-d]pyrimidin-6-yl]phenyl}urea]		7 nM
					1 nM	0.776 nM	945 nM	142 nM			CN1CCN(c2ccc(NC(=O)Nc3ccc(-c4nc(N5CC6CCC(C5)O6)c5cnn(CC(F)(F)F)c5n4)cc3)cc2)CC1 [Example 261, 1-[4-(4-methylpiperazin-1-yl)phenyl]-3-{4-[4-(8-oxa-3-azabicyclo[3.2.1]oct-3-yl)-1-(2,2,2-trifluoroethyl)-1H-pyrazolo[3,4-d]pyrimidin-6-yl]phenyl}urea]		2 nM
					2.3 nM	0.6 nM	12000 nM	1050 nM	> 10000 nM	12000 nM	O=C(Nc1ccc(-c2nc(N3CC4CCC(C3)O4)c3cnn(CC(F)(F)F)c3n2)cc1)OCCO [Example 110, 2-hydroxyethyl {4-[4-(8-oxa-3-azabicyclo[3.2.1]oct-3-yl)-1-(2,2,2-trifluoroethyl)-1H-pyrazolo[3,4-d]pyrimidin-6-yl]phenyl}carbamate]		42 nM
						0.21 nM	2380 nM	1180 nM	> 10000 nM	> 10000 nM	CNC(=O)Nc1ccc(-c2nc(N3CC4CCC(C3)O4)c3cnn(C4CCC5(CC4)OCCO5)c3n2)cc1 [Example 105, 1-(4-(4-(8-oxa-3-azabicyclo[3.2.1]octan-3-yl)-1-(1,4-dioxaspiro[4.5]decan-8-yl)-1H-pyrazolo[3,4-d]pyrimidin-6-yl)phenyl)-3-methylurea]		26 nM
1.87 nM	6820 nM	4050 nM	> 10000 nM	1070 nM	67 nM						O=C(Nc1ccc(-c2nc(N3C[C@@H]4C[C@H]3CO4)c3cnn(CC(F)(F)F)c3n2)cc1)NC1CC1 [Example 296, 1-cyclopropyl-3-(4-{4-[(1S,4S)-2-oxa-5-azabicyclo[2.2.1]hept-5-yl]-1-(2,2,2-trifluoroethyl)-1H-pyrazolo[3,4-d]pyrimidin-6-yl}phenyl)urea]		138 nM
					60 nM	0.58 nM		1710 nM		> 10000 nM	CNC(=O)Nc1ccc(-c2nc(N3CC4CCC(C3)O4)c3cnn(C4CCN(C(=O)C(C)C)CC4)c3n2)cc1 [Example 82, 1-{4-[1-(1-isobutyrylpiperidin-4-yl)-4-(8-oxa-3-azabicyclo[3.2.1]oct-3-yl)-1H-pyrazolo[3,4-d]pyrimidin-6-yl]phenyl}-3-methylurea]		230 nM
1.3 nM		6 nM		522 nM	4 nM						CS(=O)(=O)N1CCN(Cc2cc3nc(-c4ccc(NC(=O)Nc5ccccc5)cc4)nc(N4CC5CCC(C4)O5)c3s2)CC1 [Example 432, 1-{4-[6-{[4-(methylsulfonyl)piperazin-1-yl]methyl}-4-(8-oxa-3-azabicyclo[3.2.1]oct-3-yl)thieno[3,2-d]pyrimidin-2-yl]phenyl}-3-phenylurea]		37 nM
					800 nM	10.4 nM		> 10000 nM		> 10000 nM	O=C(Nc1ccc(-c2nc(N3CC4CCC(C3)O4)c3cnn(C4CCC5(CC4)OCCO5)c3n2)cc1)OCC(F)(F)F [Example 129, 2,2,2-trifluoroethyl {4-[1-(1,4-dioxaspiro[4.5]dec-8-yl)-4-(8-oxa-3-azabicyclo[3.2.1]oct-3-yl)-1H-pyrazolo[3,4-d]pyrimidin-6-yl]phenyl}carbamate]		4900 nM
3.1 nM		317 nM		5630 nM	210 nM						CCn1nc(Br)c2c(N3CC4CCC(C3)O4)nc(-c3ccc(NC(=O)NC)cc3)nc21 [Example 397, 1-{4-[3-bromo-1-ethyl-4-(8-oxa-3-azabicyclo[3.2.1]oct-3-yl)-1H-pyrazolo[3,4-d]pyrimidin-6-yl]phenyl}-3-methylurea]		1500 nM
					< 1 nM	1.8 nM		344 nM		4240 nM	CN(C)c1cccc(NC(=O)Nc2ccc(-c3nc(N4CC5CCC(C4)O5)c4cnn(CC(F)(F)F)c4n3)cc2)c1 [Example 257, 1-[3-(dimethylamino)phenyl]-3-{4-[4-(8-oxa-3-azabicyclo[3.2.1]oct-3-yl)-1-(2,2,2-trifluoroethyl)-1H-pyrazolo[3,4-d]pyrimidin-6-yl]phenyl}urea]		3 nM
